SMILES strings stand for the structures.

For this test, the target named is human APJ receptor (Homo sapiens (Human), UniProt P35414). Nature of the test: [35S]GTPγS binding assay on membranes from CHO cells stably expressing human APJ receptor. It counts as biochemical. The settings on record: read-out: Activity hAPJ SPA EC50 IP. In outline: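 Agonist-driven [35S]GTPγS (0.2 nM) binding was measured over 90 min at room temperature on human APJ-expressing CHO membranes with bead capture, in buffer containing 3 μM GDP, 200 mM NaCl and 5 mM MgCl2 (pH 7.5). Excess unlabelled GTPγS (100 μM) gave nonspecific signal; EC50 from non-linear fits.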
Chain of human APJ receptor (P35414 whole entry): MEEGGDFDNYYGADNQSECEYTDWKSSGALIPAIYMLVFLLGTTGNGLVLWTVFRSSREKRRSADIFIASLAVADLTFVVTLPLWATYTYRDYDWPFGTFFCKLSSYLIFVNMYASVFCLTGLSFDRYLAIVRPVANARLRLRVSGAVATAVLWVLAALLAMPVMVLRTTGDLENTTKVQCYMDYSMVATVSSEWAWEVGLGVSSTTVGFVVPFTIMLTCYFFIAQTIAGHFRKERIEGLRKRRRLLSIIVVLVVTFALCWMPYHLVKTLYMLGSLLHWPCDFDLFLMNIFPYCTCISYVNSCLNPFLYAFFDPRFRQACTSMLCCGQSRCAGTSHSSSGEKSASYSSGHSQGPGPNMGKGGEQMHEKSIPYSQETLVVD
On the technique in general: GTPγS is a poorly hydrolysed GTP analogue; its binding reports G protein activation.
On to `CO[C@H](c1ncc(Cl)cn1)[C@H](C)S(=O)(=O)Nc1nnc([C@@H]2COCCO2)n1C1CCOCC1` (single isomer, unassigned) [Example 248.0, (1R,2S)-1-(5-chloro-2-pyrimidinyl)-N-(5-((2R)-1,4-dioxan-2-yl)-4-(tetrahydro-2H-pyran-4-yl)-4H-1,2,4-triazol-3-yl)-1-methoxy-2-propanesulfonamide or (1R,2S)-1-(5-chloro-2-pyrimidinyl)-N-(5-((2S)-1,4-dioxan-2-yl)-4-(tetrahydro-2H-pyran-4-yl)-4H-1,2,4-triazol-3-yl)-1-methoxy-2-propanesulfonamide], for which the EC50 – broadly, the concentration at which the effect is half-maximal – was found to be 0.58 nM. `COCC(COC)n1c(NS(=O)(=O)[C@@H](C)[C@H](OC)c2ncc(Cl)cn2)nnc1[C@@H]1COCCO1` (single isomer, unassigned) [Example 250.0, (1R,2S)-1-(5-chloro-2-pyrimidinyl)-N-(4-(1,3-dimethoxy-2-propanyl)-5-((2R)-1,4-dioxan-2-yl)-4H-1,2,4-triazol-3-yl)-1-methoxy-2-propanesulfonamide or (1R,2S)-1-(5-chloro-2-pyrimidinyl)-N-(4-(1,3-dimethoxy-2-propanyl)-5-((2S)-1,4-dioxan-2-yl)-4H-1,2,4-triazol-3-yl)-1-methoxy-2-propanesulfonamide]: the EC50 is 48 nM. `COCC(COC)n1c(NS(=O)(=O)[C@@H](C)[C@H](OC)c2ncc(Cl)cn2)nnc1[C@@H]1COCCO1` (single isomer, unassigned) [Example 251.0, (1R,2S)-1-(5-chloro-2-pyrimidinyl)-N-(4-(1,3-dimethoxy-2-propanyl)-5-((2R)-1,4-dioxan-2-yl)-4H-1,2,4-triazol-3-yl)-1-methoxy-2-propanesulfonamide or (1R,2S)-1-(5-chloro-2-pyrimidinyl)-N-(4-(1,3-dimethoxy-2-propanyl)-5-((2S)-1,4-dioxan-2-yl)-4H-1,2,4-triazol-3-yl)-1-methoxy-2-propanesulfonamide]: the EC50 amounted to 750 nM. With `COc1cccc(OC)c1-n1c(NS(=O)(=O)[C@H](C)[C@H](OC(C)C)c2cn3ccccc3n2)nnc1[C@H]1COCCO1` (single isomer, unassigned) [Example 266.0, (1R,2R)—N-(4-(2,6-dimethoxyphenyl)-5-((S)-1,4-dioxan-2-yl)-4H-1,2,4-triazol-3-yl)-1-(imidazo[1,2-a]pyridin-2-yl)-1-isopropoxypropane-2-sulfonamide or (1S,2S)—N-(4-(2,6-dimethoxyphenyl)-5-((S)-1,4-dioxan-2-yl)-4H-1,2,4-triazol-3-yl)-1-(imidazo[1,2-a]pyridin-2-yl)-1-isopropoxypropane-2-sulfonamide], the EC50 is 150 nM. With `COc1cccc(OC)c1-n1c(NS(=O)(=O)[C@@H](C)[C@H](C)c2ccc(Cl)cn2)nnc1[C@@H]1COCCO1` (single isomer, unassigned) [Example 267.0, (2S,3R)-3-(5-chloropyridin-2-yl)-N-(4-(2,6-dimethoxyphenyl)-5-((R)-1,4-dioxan-2-yl)-4H-1,2,4-triazol-3-yl)butane-2-sulfonamide or (2S,3R)-3-(5-chloropyridin-2-yl)-N-(4-(2,6-dimethoxyphenyl)-5-((S)-1,4-dioxan-2-yl)-4H-1,2,4-triazol-3-yl)butane-2-sulfonamide], the EC50 came to 2.1 nM. Consider `COc1cccc(OC)c1-n1c(NS(=O)(=O)[C@@H](C)[C@H](C)c2ccc(Cl)cn2)nnc1[C@@H]1COCCO1` (single isomer, unassigned) [Example 268.0, (2S,3R)-3-(5-chloropyridin-2-yl)-N-(4-(2,6-dimethoxyphenyl)-5-((R)-1,4-dioxan-2-yl)-4H-1,2,4-triazol-3-yl)butane-2-sulfonamide or (2S,3R)-3-(5-chloropyridin-2-yl)-N-(4-(2,6-dimethoxyphenyl)-5-((S)-1,4-dioxan-2-yl)-4H-1,2,4-triazol-3-yl)butane-2-sulfonamide], for which the EC50 was found to be 1.9 nM. In the case of `COc1cccc(OC)c1-n1c(NS(=O)(=O)[C@@H](C)[C@H](C)c2ncc(C)cn2)nnc1[C@@H]1CCCN(C)C1` (single isomer, unassigned) [Example 269.0, (2S,3R)-N-(4-(2,6-dimethoxyphenyl)-5-((R)-1-methylpiperidin-3-yl)-4H-1,2,4-triazol-3-yl)-3-(5-methylpyrimidin-2-yl)butane-2-sulfonamide or (2S,3R)-N-(4-(2,6-dimethoxyphenyl)-5-((S)-1-methylpiperidin-3-yl)-4H-1,2,4-triazol-3-yl)-3-(5-methylpyrimidin-2-yl)butane-2-sulfonamide] it was 420 nM; in that of `COc1cccc(OC)c1-n1c(NS(=O)(=O)[C@@H](C)[C@H](C)c2ncc(C)cn2)nnc1[C@@H]1CCCN(C)C1` (single isomer, unassigned) [Example 270.0, (2S,3R)-N-(4-(2,6-dimethoxyphenyl)-5-((R)-1-methylpiperidin-3-yl)-4H-1,2,4-triazol-3-yl)-3-(5-methylpyrimidin-2-yl)butane-2-sulfonamide or (2S,3R)-N-(4-(2,6-dimethoxyphenyl)-5-((S)-1-methylpiperidin-3-yl)-4H-1,2,4-triazol-3-yl)-3-(5-methylpyrimidin-2-yl)butane-2-sulfonamide], 410 nM. Take `CO[C@H](c1ncc(Cl)cn1)[C@H](C)S(=O)(=O)Nc1nnc([C@@H]2COCCO2)n1C1(C)CC1` (single isomer, unassigned) [Example 271.0, (1R,2S)-N-(5-((R)-1,4-dioxan-2-yl)-4-(1-methylcyclopropyl)-4H-1,2,4-triazol-3-yl)-1-(5-chloropyrimidin-2-yl)-1-methoxypropane-2-sulfonamide or (1R,2S)-N-(5-((S)-1,4-dioxan-2-yl)-4-(1-methylcyclopropyl)-4H-1,2,4-triazol-3-yl)-1-(5-chloropyrimidin-2-yl)-1-methoxypropane-2-sulfonamide]: the 50% effective concentration (EC50) was 140 nM. In the case of `CO[C@H](c1ncc(Cl)cn1)[C@H](C)S(=O)(=O)Nc1nnc([C@@H]2COCCO2)n1C1(C)CC1` (single isomer, unassigned) [Example 272.0, (1R,2S)-N-(5-((R)-1,4-dioxan-2-yl)-4-(1-methylcyclopropyl)-4H-1,2,4-triazol-3-yl)-1-(5-chloropyrimidin-2-yl)-1-methoxypropane-2-sulfonamide or (1R,2S)-N-(5-((S)-1,4-dioxan-2-yl)-4-(1-methylcyclopropyl)-4H-1,2,4-triazol-3-yl)-1-(5-chloropyrimidin-2-yl)-1-methoxypropane-2-sulfonamide], the EC50 is 1010 nM. In the case of `COc1cccc(OC)c1-n1c(NS(=O)(=O)[C@@H](C)[C@H](C)c2ncc(F)cn2)nnc1[C@H]1CCOC1` (single isomer, unassigned) [Example 273.0, (2S,3R)-N-(4-(2,6-dimethoxyphenyl)-5-((R)-tetrahydrofuran-3-yl)-4H-1,2,4-triazol-3-yl)-3-(5-fluoropyrimidin-2-yl)butane-2-sulfonamide or (2S,3R)-N-(4-(2,6-dimethoxyphenyl)-5-((S)-tetrahydrofuran-3-yl)-4H-1,2,4-triazol-3-yl)-3-(5-fluoropyrimidin-2-yl)butane-2-sulfonamide], the EC50 stood at 29 nM. For the molecule `COc1cccc(OC)c1-n1c(NS(=O)(=O)[C@@H](C)[C@H](C)c2ncc(F)cn2)nnc1[C@H]1CCOC1` (single isomer, unassigned) [Example 274.0, (2S,3R)-N-(4-(2,6-dimethoxyphenyl)-5-((R)-tetrahydrofuran-3-yl)-4H-1,2,4-triazol-3-yl)-3-(5-fluoropyrimidin-2-yl)butane-2-sulfonamide or (2S,3R)-N-(4-(2,6-dimethoxyphenyl)-5-((S)-tetrahydrofuran-3-yl)-4H-1,2,4-triazol-3-yl)-3-(5-fluoropyrimidin-2-yl)butane-2-sulfonamide], the EC50 worked out at 78 nM. On to `COc1cccc(OC)c1-n1c(NS(=O)(=O)[C@@H](C)[C@H](C)c2ncc(F)cn2)nnc1[C@@H]1COCCO1` (single isomer, unassigned) [Example 276.0, (2S,3R)-N-(4-(2,6-dimethoxyphenyl)-5-((R)-1,4-dioxan-2-yl)-4H-1,2,4-triazol-3-yl)-3-(5-fluoropyrimidin-2-yl)butane-2-sulfonamide or (2S,3R)-N-(4-(2,6-dimethoxyphenyl)-5-((S)-1,4-dioxan-2-yl)-4H-1,2,4-triazol-3-yl)-3-(5-fluoropyrimidin-2-yl)butane-2-sulfonamide], for which the EC50 was 33 nM. With `COc1ncnc(OC)c1-n1c(NS(=O)(=O)[C@@H](C)[C@H](C)c2ncc(F)cn2)nnc1[C@@H]1COCCO1` (single isomer, unassigned) [Example 277.0, (2S,3R)-N-(4-(4,6-dimethoxypyrimidin-5-yl)-5-((R)-1,4-dioxan-2-yl)-4H-1,2,4-triazol-3-yl)-3-(5-fluoropyrimidin-2-yl)butane-2-sulfonamide or (2S,3R)-N-(4-(4,6-dimethoxypyrimidin-5-yl)-5-((S)-1,4-dioxan-2-yl)-4H-1,2,4-triazol-3-yl)-3-(5-fluoropyrimidin-2-yl)butane-2-sulfonamide], the EC50 was found to be 23 nM.

For `COc1ncnc(OC)c1-n1c(NS(=O)(=O)[C@@H](C)[C@H](C)c2ncc(F)cn2)nnc1[C@@H]1COCCO1` (single isomer, unassigned) [Example 278.0, (2S,3R)-N-(4-(4,6-dimethoxypyrimidin-5-yl)-5-((R)-1,4-dioxan-2-yl)-4H-1,2,4-triazol-3-yl)-3-(5-fluoropyrimidin-2-yl)butane-2-sulfonamide or (2S,3R)-N-(4-(4,6-dimethoxypyrimidin-5-yl)-5-((S)-1,4-dioxan-2-yl)-4H-1,2,4-triazol-3-yl)-3-(5-fluoropyrimidin-2-yl)butane-2-sulfonamide], the EC50 is 510 nM.

These data come from US10150760B2, “Compounds for use in preparing heterocyclic triazole agonists of the APJ receptor” (AMGEN INC., priority 2016, dated 2018).
